{"source": "patent US20140363406A1", "about": "“ESTROGEN METABOLITE LEVELS AND CYP1B1 POLYMORPHISMS IN LUNG CANCER DIAGNOSIS, PROGNOSIS, AND RISK ASSESSMENT” (Institute for Cancer Research d/b/a The Research Institute …, priority 2012, published 2014)", "target": "T1, CYP1B1 (Mus musculus, UniProt Q64429)", "T1 sequence (Q64429 1-543)": "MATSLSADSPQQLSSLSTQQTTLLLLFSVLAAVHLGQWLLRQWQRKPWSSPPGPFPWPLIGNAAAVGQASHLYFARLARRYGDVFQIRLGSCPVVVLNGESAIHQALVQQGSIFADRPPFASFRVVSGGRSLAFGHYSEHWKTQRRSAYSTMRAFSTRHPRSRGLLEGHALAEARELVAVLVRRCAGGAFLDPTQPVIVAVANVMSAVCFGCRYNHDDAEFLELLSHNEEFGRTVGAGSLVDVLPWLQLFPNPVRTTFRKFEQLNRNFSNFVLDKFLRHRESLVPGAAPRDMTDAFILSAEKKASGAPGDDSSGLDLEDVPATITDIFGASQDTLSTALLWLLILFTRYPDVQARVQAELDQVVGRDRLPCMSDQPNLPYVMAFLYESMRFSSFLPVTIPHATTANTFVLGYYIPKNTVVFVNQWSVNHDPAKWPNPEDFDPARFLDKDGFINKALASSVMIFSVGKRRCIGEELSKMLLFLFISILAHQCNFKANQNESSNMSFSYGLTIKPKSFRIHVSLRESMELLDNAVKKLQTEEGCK", "assay": "Impact of Cyp1b1 deletion on lung estrogen/EM levels (Cyp1b1-KO vs Cyp1b1-WT 129SvJ mice), LC-MS2", "description": "Animals. […] Smoke exposures were performed on female C57/B6 mice (1.5-2 years old) carrying a human APOE*4 transgene that were part of an atherosclerosis study at Duke University and fed a high-fat diet TD.88051. Animals had free access to food and water. All animal experimentation was approved by the Institutional Animal Care and Use Committees at Fox Chase Cancer Center and Duke University.\nGenotyping. PCR-based genotyping of Cyp1b1 wild-type (Cyp1b1-WT) and knockout (Cyp1b1-K0) mice was performed using Choice Taq Blue DNA Polymerase Master mix (Denville Scientific, South Plainfield, N.J.) according to the following protocol: Wild-type primers—[…]\nLung tissue collection. Following euthanasia, the lungs were perfused by intracardiac injection with 30 ml phosphate buffered saline to flush out the blood. Perfused tissues were snap-frozen in liquid nitrogen and stored at −80° C. The accessory lobe of the lung was reserved for RNA extraction, whereas the remaining lobes were processed for estrogen metabolite analyses.\nSample preparation. Lung tissue samples (0.1-0.2 g per sample) from Cyp1b1-WT or Cyp1b1-KO mice (female and male, 12-14 weeks of age, n=4-5 per group) were thawed at room temperature, minced with scissors and transferred into 1.5 ml Eppendorf tubes. […] The tissue was homogenized on ice using a Tissue Tearor™ (Cole-Parmer, Vernon Hills, Ill.) at low and high speeds in two consecutive 15 s increments for a total of 30 s, and further sonicated on ice (five cycles of 10 s pulses with 10 s breaks between pulses). Eight milliliters of ethanol:acetone and […] each of stable isotope-labeled estrogen internal standards (0.32 ng/ml working standard solutions) were added to each tissue homogenate. The mixture was incubated on a rotator at room temperature for 1 h and centrifuged at 3000 ×g for 30 min. The ethanol:acetone tissue extract was transferred to a clean glass tube and dried under nitrogen gas at 60° C. for 60 min (Reacti-Vap III™, Pierce, Rockford, Ill.). The residue was redissolved in 4 ml of methanol, vortexed for 1 min, chilled at -80° C. for 1 h, returned to room temperature and centrifuged at 3000 × g for 20 min. The methanolic phase was transferred to a clean glass tube and dried under nitrogen gas. The residue was redissolved in 100 μl of ethanol and vortexed briefly. This step was followed by the addition of 1.5 ml of 100 mM sodium acetate buffer, pH 4.6, and 5 ml of dichloromethane to the residue and incubation at room temperature on a rotator for 30 min.\nThe extract was chilled at −80° C. for 10 min, returned to room temperature and centrifuged at 3000 × g for 20 min. The dichloromethane phase was transferred to a clean tube and dried. To each dried sample, 40 μl of 0.1 M sodium bicarbonate buffer, pH 9.0, and 40 μl of dansyl chloride solution (1 mg/ml in acetone) were added. After vortexing for 10 s, samples were heated at 70° C. (Reacti-Therm III™ Heating Module, Pierce, Rockford, Ill.) for 10 min to form the EM and SI-EM dansyl derivatives. All samples were centrifuged at 3000 ×g for 20 min and analyzed using LC-M5^2. The efficiency of extracting estrogen and its metabolites from the tissue cannot be measured accurately because a known amount of each metabolite cannot be placed in the tissue prior to extraction. Furthermore, the amount of estrogens/EM present at baseline is unknown.\nLC-MS^2 analysis was performed using a Shimadzu Prominence UFLC system (Shimadzu Scientific Instruments, Columbia, Md.) coupled with a TSQ™ Quantum Ultra triple quadrupole mass spectrometer (Thermo Electron, San Jose, Calif.). The LC separation was carried out on a 50 mm long×2 mm […] column packed with 2.5 μm Synergi Hydro-RP particles (Phenomenex, Torrance, Calif.) maintained at 40° C. A 20 μl aliquot of each sample was injected onto the column."}
{"smiles": "C[C@]12CC[C@@H]3c4cc(O)c(O)cc4CC[C@H]3[C@@H]1CCC2=O", "note": "[2-OHE1, 2-hydroxyestrone]", "values": [{"measurement": "percentage of total estrogen, male versus female (in words)", "setting": "Cyp1b1-KO mice", "value": "no significant difference"}, {"measurement": "increase in lung level in Cyp1b1-KO compared with WT controls", "setting": "females", "value": 3, "unit": "fold"}, {"measurement": "increase in lung level in Cyp1b1-KO compared with WT controls", "setting": "males", "value": 1.7, "unit": "fold"}]}
{"smiles": "C[C@]12CC[C@@H]3c4ccc(O)c(O)c4CC[C@H]3[C@@H]1CCC2=O", "note": "[4-OHE1, 4-hydroxyestrone]", "values": [{"measurement": "decrease in lung level by deletion of Cyp1b1", "setting": "female Cyp1b1-KO vs WT", "value": 21, "unit": "fold"}, {"measurement": "lung level in Cyp1b1-KO as % of WT controls", "setting": "females", "value": 4.7, "unit": "%"}, {"measurement": "decrease in lung level by deletion of Cyp1b1", "setting": "male Cyp1b1-KO vs WT", "value": 14, "unit": "fold"}, {"measurement": "lung level in Cyp1b1-KO as % of WT controls", "setting": "males", "value": 7.4, "unit": "%"}]}
{"smiles": "C[C@]12CC[C@@H]3c4ccc(O)c(O)c4CC[C@H]3[C@@H]1CC[C@@H]2O", "note": "[4-OHE2, 4-hydroxyestradiol]", "values": [{"measurement": "lung level reduced in Cyp1b1-KO compared with Cyp1b1-WT controls", "setting": "both sexes", "value": "~50", "unit": "%"}, {"measurement": "lung level reduced in Cyp1b1-KO compared with Cyp1b1-WT controls", "setting": "females", "value": 60, "unit": "%"}, {"measurement": "lung level reduced in Cyp1b1-KO compared with Cyp1b1-WT controls", "setting": "males", "value": 56, "unit": "%"}]}
